In patent US11331282B2, “Ophthalmic composition containing clathrated antioxidant substance, and use thereof” (TK Health Research, Co. Ltd., priority 2017, dated 2022):

Key:
dry eye mouse model = assay: Change in tear volume by Schirmer's test in BAC dry eye mouse model; assay type: in vivo; conditions: oral intake 200 mg/kg, two weeks, Day 28, Example 2
Description: A dry eye mouse model was created by eye drop treatment with benzalkonium chloride (also denoted as BAC).
After two weeks of continuous BAC treatment of mice, additional BAC treatment and eye drop treatment with water soluble astaxanthin or water soluble control (vehicle, γ-cyclodextrin only) were continued for two weeks. A group of mice applied with only PBS eye drops was used as a […].
The change in the tear volume in the mouse model was measured by Schirmer's test. The tear volume was determined as a relative tear volume (normal tear volume (filter moving distance): 7.17±1.35 mm) when normal tear volume was 100. Statistical processing: ANOVA, Student's t-test.
A dry eye mouse model was created in the same manner described in Example 1. […] The change in tear volume was measured by Schirmer's test in the same manner as Example 1. The goblet cells were also counted in the same manner as Example 1.
A dry eye mouse model was created in the same manner as Example 1. Subsequently, water-soluble astaxanthin eye drops and DMSO dissolved astaxanthin eye drops were applied for two weeks, and the change in the tear volume was measured by Schirmer's test in the same manner as Example 1. The goblet cells were also counted in the same manner as Example 1. […]
A change in the tear volume in the mouse model is measured by Schirmer's test. […]

[1] = tested on: ocular surface goblet cells of a dry eye mouse model; assay: Goblet cell count by PAS stain in BAC dry eye mouse model; assay type: in vivo; conditions: oral administration for two weeks
Description: To find the effect of astaxanthin eye drops on ocular surface goblet cells of a dry eye mouse model, histological analysis was performed after two weeks of astaxanthin eye drops, and the number of goblet cells was counted by counting the cells stained red by PAS stain.
A dry eye mouse model was created in the same manner described in Example 1. Subsequently, astaxanthin eye drops were applied and astaxanthin was orally administered (oral intake astaxanthin, also denoted as oAsx) for two weeks. The change in tear volume was measured by Schirmer's test in the same manner as Example 1. The goblet cells were also counted in the same manner as Example 1.
A dry eye mouse model was created in the same manner as Example 1. Subsequently, water-soluble astaxanthin eye drops and DMSO dissolved astaxanthin eye drops were applied for two weeks, and the change in the tear volume was measured by Schirmer's test in the same manner as Example 1. The goblet cells were also counted in the same manner as Example 1.
A change in the tear volume in the mouse model is measured by Schirmer's test. The tear volume is determined as a relative tear volume (normal tear volume (filter moving distance): 7.17±1.35 mm) when normal tear volume is 100. Statistical processing: ANOVA, Student's t-test. […]

[2] = Solubilization testing by filtration (colour of filtrate, 0.45 μm filter); assay type: physicochemical
Description: The astaxanthin concentration in the filtrate can be measured by measuring the absorbance of the wavelength 478 nm using an absorption (spectrophoto)meter. […] Astaxanthin was dissolved in DMSO, and the final concentration was adjusted to 6.25, 12.5, 25, 50, and 100 μg/ml with Milli-Q water. After 0 point correction with a solvent, 480 nm absorbance of each astaxanthin solution was measured, and calibration curves were drawn. The concentration of water soluble astaxanthin solution was found from the 480 nm absorbance measurement value of the water soluble astaxanthin solution based thereon. […] Solubilization of lycopene and canthaxanthin was confirmed by filtration with a 0.45 μm filter.

solubilization in aqueous solvent (remains in filtrate after filtration) [2] | Compound | tear volume (relative to normal tear volume) (dry eye mouse model) | goblet cell count [1]
– | CC1=C(/C=C/C(C)=C/C=C/C(C)=C/C=C/C=C(C)/C=C/C=C(C)/C=C/C2=C(C)C(=O)[C@@H](O)CC2(C)C)C(C)(C)C[C@H](O)C1=O [astaxanthin] | increased only slightly | recovery in the goblet cell count was not observed
Successful water-solubilization | canthaxanthin | – | –
